The test system of data set [1] is Aβ40 in SY5Y-BACEGFP-SEAPAPPwt cells. In words: Aβ40 ELISA (BioSource) in SY5Y-BACEGFP-SEAPAPPwt cells. It is filed as cell-based. The settings on record: for IC50: SAR study, 8 concentrations (30-0.01 μM), SY5Y-BACEGFP-SEAPAPPwt cells. The protocol:
FIG. 11. 5 LDDN compounds reduce Aβ40 in SYSY-BACEGFP-SEAPAPPwt cells. sAPPβ and 24-hour cell viability was performed as described in Chapter 4.1. Aβ40 ELISA was performed using the Aβ40 ELISA kit (BioSource) according to the manufacturer's protocol. Cell culture media was collected after 6 hours of treatment with 4 concentrations (30, 10, 3, 0.3 μM) of compound and diluted 3:10 prior to loading onto the Aβ ELISA plate. The data points for sAPPβ and Aβ were roughly superimposed. Data points represent mean±s.d. of 3 determinations.
FIG. 13. […] Compounds were tested in SY5Y-BACEGFP-SEAPAPPwt cells using the cell-based BACE1 assay. Select compounds were also investigated for Aβ-lowering effect using a commercial Aβ ELISA kit (BioSource). All compounds were tested at 8 concentrations (30, 10, 3, 1, 0.3, 0.1, 0.03, and 0.01 μM), and data points were analyzed with Origin software and fitted using a logistic model for IC50 determination.
In other non-limiting embodiments, the effective amount of at least one compound of Formulas I-VII, and/or a compound depicted in FIG. 19, may be correlated with the compound's ability to reduce the level of Aβ40 in an in vitro assay that measures the level of Aβ40 produced in a cell line, for example, an SY5Y-BACEGFP-SEAPAPPwt cell line. In one non-limiting example, the level of Aβ40 expressed by the cell line may be measured through the use of an Aβ40 Elisa kit (Bio Source). In one embodiment, the assay comprises incubating the Aβ40 expressing cells with a compound of Formulas I-VII, and/or a compound depicted in FIG. 19, followed by assaying the concentration of Aβ40 in the cell media. In such an assay, a greater reduction of Aβ40 concentration in the cell media following incubation with a compound compared to a control cell line not contacted with the compound is correlative with the compound's therapeutic efficacy.
The 15 LDDN compounds were tested in SY5Y-BACEGFP-SEAPAPPwt cells for their ability to reduce Aβ40 using a commercial Aβ40 ELISA kit (BioSource). SY5Y-BACEGFP-SEAPAPPwt cells were grown to 100% confluence and incubated with 4 concentrations of each compound (30, 10, 3, 0.3 μM). Cell culture media was collected after 6 hours of compound incubation and diluted 3:10 in sample diluent supplied in the Aβ40 ELISA kit. Aβ ELISA was performed according to the manufacturer's protocol. […] LDN-0057228 and LDN-0069630 are small molecules with ample chemical space for modification, and are thus considered good candidates for medicinal chemistry.
27 structural analogs of LDN-0057228 were synthesized and tested using the cell-based BACE1 assay in SY5Y-BACEGFP-SEAPAPPwt cells (FIG. 13). 4 analogs, in addition to the parent compound, were also assessed for Aβ40 lowering activity using a commercial Aβ kit (BioSource). Because LDN-0057228 resembles CNS monoamine transporter inhibitors, this analog series was given the designation “CNS.” LDN-0057228 gave an unexpectedly low potency (IC50˜20 μM for both sAPPβ and Aβ40 reduction) compared to the ˜7 μM potency obtained using the same compound in FIG. 8.

A short description of data set [2]: weight and overt toxicity in treated Tg2576 mice. In kind it is in vivo. Conditions: 3 mg/kg intraperitoneal, 9 days. As for the experimental part:
A total of 16 mice were treated with either DMSO (n=8) or 3 mg/kg CNS-2 (n=8). The dosage was selected arbitrarily based on compound solubility in 0.9% normal saline. CNS-2 was dissolved in 0.9% normal saline solution with 1.9% final DMSO concentration. 12- to 13-month old Tg2576 mice were treated with DMSO or CNS-2 via intraperitoneal injection for 9 days (1 injection per day) at an injection volume of 20 μl per gram of weight. Mouse weight was monitored daily, and the total injection volume adjusted accordingly over the course of the 9-day treatment. […] Mice were sacrificed on day 9, 5 hours after the final injection. One hemibrain from each mouse was homogenized and processed for formic acid extraction of plaque Aβ. Total Aβ40 was determined by Aβ ELISA kit and normalized to total protein (FIG. 18).

In data set [3] the test system is Aβ40 in Lenti-APPsw infected primary cortical neurons. In words: Aβ40 ELISA in Lenti-APPsw infected primary cortical neurons. In kind it is cell-based, mouse. Conditions: 24 hours. As for the experimental part:
FIG. 15A-D. LDN-0057228 reduces Aβ40 and sAPPβ in primary neurons. DIV-14 primary cortical neurons from wild-type mice were incubated for 24 hours with primary culture media containing lentivirus harboring APPsw. After infection, neurons were incubated for 48 hours with 1:1 fresh to conditioned media to allow for APP expression. Neurons were then treated with LDN-0057228 at 20 μM for 24 hours in triplicate. A) Media was collected for Aβ40 ELISA. Raw Aβ40 values were normalized to APP to control for variations in lentiviral infection efficiency. B) Cell lysates were probed with 6E10 antibody to visualize the transduced full-length APP. C) sAPPβ from neuron culture media was immunoprecipitated with sβsw antibody and probed with LN27. D) Quantification of sAPPβ, normalized to APP. Data in A) and […]) represent mean+s.d. of 3 wells. Bands from B) and C) were quantified using ImageJ software.
FIG. 16A-B. CNS-2 and LDN-0057228 reduce Aβ40 in primary neurons. DIV-14 primary cortical neurons from wild-type mice were incubated for 24 hours with primary culture media containing lentivirus harboring APPsw. After infection, neurons were incubated for 48 hours with 1:1 fresh to conditioned media to allow for APP expression. Neurons were then treated for 24 hours with the indicated compound and concentration. A) Media was collected for Aβ40 ELISA. Raw Aβ40 values were normalized to APP to control for variations in lentiviral infection efficiency. B) Cell lysates were probed with 6E10 antibody to visualize the transduced full-length APP.
Lenti-APPsw infected primary cortical neurons were selected for the initial round of physiological experiments due to the relatively large batches of wild-type primary cortical neurons that were routinely harvested in the lab, the ease of lentiviral packaging. Primary cortical neurons were harvested from wild-type P0 pups using established protocols.
The Lenti-APPsw vector was co-transfected into HEK293 T cells with ViraPower packaging mix (Invitrogen) to generate the lentivirus. Lentiviral-mediated transduction of APPsw in primary neurons was performed by adding neuron primary culture media containing the lentiviral particles to wild-type DIV-14 primary neurons (FIG. 14). After 24 hours, neurons were incubated with media for 72 hours prior to collecting for Aβ40 measurement. Two batches of virus (LV-1 and LV-2) were tested, showing that there is batch-to-batch variation in the viral titer.
Using this experimental paradigm, LDN-0057228 was tested at 20 μM concentration to confirm the sAPPβ- and Aβ-lowering activity of the compound (FIG. 15). The protocol was modified slightly to allow for 24-hour compound treatment. […]
On the technique in general: ELISA stands for enzyme-linked immunosorbent assay.

Some results are limits rather than exact numbers.

For orientation: IC50 means the concentration at which inhibition is half-maximal. A low value points to inhibition by little substance. As for `O=C(CCc1ccccc1)NC[C@@H]1CCCN1CCOC(c1ccc(F)cc1)c1ccc(F)cc1` [CNS-2], the IC50 in data set [1] was determined as 5 µM. Further, the “changes in weight and overt signs of toxicity” value in data set [2] is “Neither the treated nor control groups exhibited any significant changes in weight or any overt signs of toxicity”. Also, in data set [3] (5 μM), the “reduction in Aβ40” value is more than 80%.

As to `Fc1ccc(C(OCCN2CCC[C@H]2CNCCc2ccccc2)c2ccc(F)cc2)cc1` [LDN-0057228], in data set [1] (4 concentrations (30, 10, 3, 0.3 μM), 6 hours), the “dose-dependent decrease in Aβ40” value was “caused a dose-dependent decrease in Aβ40”. In data set [1], this compound yielded a 50% inhibitory concentration (IC50) of approximately 20 µM. Further, in data set [3] (20 μM, normalized to APP), the “reduction in Aβ40 levels” value was 75%.

(Values after patent US20110071124A1, “Compounds that Inhibit Production of sAPPB and AB and Uses Thereof” (The Trustees of Columbia University in the City of New York, priority 2008, published 2011).)
